Experimental data: ChEMBL document CHEMBL1201862, “PubChem BioAssay data set” (2004)
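Where inhibition never reached the appropriate level, the endpoint shown equals the highest concentration tested. Otherwise, values were interpolated linearly from a five-concentration, 48-hour dose response in 96-well plates. GI50 is the concentration that inhibits growth by half.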 The source made the active and inactive calls. Cut-off read from the data, not from the text of the source: active = GI50 up to about 1.1 µM and inactive = higher.

What was measured:
Experiment in all cases: DTP human tumour cell line panel, 48 h
U-251 = system: U-251
ACHN = system: ACHN
Malme-3M = system: Malme-3M
LXFL 529 = system: LXFL 529
RPMI-8226 = system: RPMI-8226
OVCAR-8 = system: OVCAR-8
UACC-62 = system: UACC-62
SW-620 = system: SW-620
SNB-19 = system: SNB-19
UO-31 = system: UO-31
SR = system: SR
SNB-75 = system: SNB-75
LOX IMVI = system: LOX IMVI
A549 = system: A549
HCT-116 = system: HCT-116
SF-295 = system: SF-295
NCI/ADR-RES = system: NCI/ADR-RES
BT-549 = system: BT-549
MCF7 = system: MCF7
OVCAR-5 = system: OVCAR-5

Compound	GI50 (U-251)	GI50 (ACHN)	GI50 (Malme-3M)	GI50 (LXFL 529)	GI50 (RPMI-8226)	GI50 (OVCAR-8)	GI50 (UACC-62)	GI50 (SW-620)	GI50 (SNB-19)	GI50 (UO-31)	GI50 (SR)	GI50 (SNB-75)	GI50 (LOX IMVI)	GI50 (A549)	GI50 (HCT-116)	GI50 (SF-295)	GI50 (NCI/ADR-RES)	GI50 (BT-549)	GI50 (MCF7)	GI50 (OVCAR-5)
COc1ccc(-c2cc(O)c3cc4c(cc3n2)OCO4)c(OC)c1	59.4 µM (inactive)	37.1 µM (inactive)	25.2 µM (inactive)	45.7 µM (inactive)	28.3 µM (inactive)	96.6 µM (inactive)	28.3 µM (inactive)	47.3 µM (inactive)	67.6 µM (inactive)	57.3 µM (inactive)	22.1 µM (inactive)	4.4 µM (inactive)	47.9 µM (inactive)	41.8 µM (inactive)	–	–	–	–	–	–
O=C1CCCCC/C=C2/CC[C@H](Sc3ccccc3)[C@@H]12	80.7 µM (inactive)	42.5 µM (inactive)	> 100 µM (inactive)	> 100 µM (inactive)	> 100 µM (inactive)	74.1 µM (inactive)	> 100 µM (inactive)	> 100 µM (inactive)	73.8 µM (inactive)	50 µM (inactive)	55.2 µM (inactive)	36.8 µM (inactive)	43 µM (inactive)	34.3 µM (inactive)	52.4 µM (inactive)	40.6 µM (inactive)	–	–	–	–
COc1ccc(Nc2nc3ccccc3nc2C(=O)O)cc1OC	> 100 µM (inactive)	44.8 µM (inactive)	34 µM (inactive)	–	65.8 µM (inactive)	> 100 µM (inactive)	60.8 µM (inactive)	> 100 µM (inactive)	73.1 µM (inactive)	29.6 µM (inactive)	> 100 µM (inactive)	69.2 µM (inactive)	99.8 µM (inactive)	> 100 µM (inactive)	> 100 µM (inactive)	33.2 µM (inactive)	35.2 µM (inactive)	52.7 µM (inactive)	40.3 µM (inactive)	> 100 µM (inactive)
CC1(c2ccc(Cl)cc2)C=C(c2ccc(Cl)cc2)C(C#N)=C(C(C#N)C#N)N1.CNC (stereo not drawn)	16.1 µM (inactive)	16.6 µM (inactive)	14.1 µM (inactive)	–	34.4 µM (inactive)	14.5 µM (inactive)	14.1 µM (inactive)	12.7 µM (inactive)	18.2 µM (inactive)	16.4 µM (inactive)	15.7 µM (inactive)	18.8 µM (inactive)	17 µM (inactive)	19.2 µM (inactive)	14 µM (inactive)	17.6 µM (inactive)	17.9 µM (inactive)	21.2 µM (inactive)	16.6 µM (inactive)	18.1 µM (inactive)
N/N=C1/C(=O)N(c2ccc(Cl)cc2)C(=O)C(=O)C1c1nc2ccccc2s1 (stereo not drawn)	> 100 µM (inactive)	> 100 µM (inactive)	> 100 µM (inactive)	> 100 µM (inactive)	> 100 µM (inactive)	> 100 µM (inactive)	> 100 µM (inactive)	> 100 µM (inactive)	> 100 µM (inactive)	> 100 µM (inactive)	–	> 65.6 µM (inactive)	> 100 µM (inactive)	> 100 µM (inactive)	> 100 µM (inactive)	> 100 µM (inactive)	–	–	–	> 100 µM (inactive)
CN/N=C(/CC(=O)c1sc(-n2nc(-c3ccccc3)cc2-c2ccccc2)nc1C)C(=O)Nc1ccc(Cl)c(Cl)c1	24.6 µM (inactive)	25.1 µM (inactive)	78.3 µM (inactive)	26.3 µM (inactive)	40.1 µM (inactive)	51.1 µM (inactive)	26.5 µM (inactive)	57.5 µM (inactive)	> 100 µM (inactive)	21.2 µM (inactive)	29.3 µM (inactive)	–	22.5 µM (inactive)	37.9 µM (inactive)	34.5 µM (inactive)	25.3 µM (inactive)	–	–	–	16.1 µM (inactive)
COC(=O)C1=C(C)N(NC(N)=O)C(C)(O)C12CCOC2=O (stereo not drawn)	> 100 µM (inactive)	> 100 µM (inactive)	> 100 µM (inactive)	> 100 µM (inactive)	> 100 µM (inactive)	> 100 µM (inactive)	> 10 µM (inactive)	> 100 µM (inactive)	> 100 µM (inactive)	> 100 µM (inactive)	–	–	> 100 µM (inactive)	> 100 µM (inactive)	> 100 µM (inactive)	> 100 µM (inactive)	–	–	–	> 100 µM (inactive)
COC(=O)CCc1cccnc1/C=N/O	> 100 µM (inactive)	> 100 µM (inactive)	> 100 µM (inactive)	> 100 µM (inactive)	–	> 100 µM (inactive)	> 100 µM (inactive)	87.5 µM (inactive)	> 100 µM (inactive)	> 100 µM (inactive)	> 100 µM (inactive)	> 100 µM (inactive)	> 100 µM (inactive)	> 100 µM (inactive)	> 100 µM (inactive)	> 100 µM (inactive)	–	–	–	> 100 µM (inactive)
O=C(CN1CCCCC1)N1CCc2c([nH]c3ccccc23)C1c1cccnc1 (stereo not drawn)	> 100 µM (inactive)	> 100 µM (inactive)	–	> 100 µM (inactive)	> 100 µM (inactive)	> 100 µM (inactive)	> 100 µM (inactive)	> 100 µM (inactive)	> 100 µM (inactive)	48.8 µM (inactive)	–	> 100 µM (inactive)	> 100 µM (inactive)	> 100 µM (inactive)	> 100 µM (inactive)	> 100 µM (inactive)	–	–	–	> 100 µM (inactive)
Cn1nc(-c2ccccc2)c(C(=O)/C=C/c2ccc(Cl)cc2)c(N2CCCCC2)c1=O	1.86 µM (inactive)	1.92 µM (inactive)	–	1.8 µM (inactive)	2.05 µM (inactive)	3.8 µM (inactive)	2.2 µM (inactive)	3.48 µM (inactive)	2.14 µM (inactive)	1.65 µM (inactive)	–	–	2.41 µM (inactive)	2.92 µM (inactive)	1.81 µM (inactive)	0.719 µM (active)	–	–	–	–
C=CCCCCC1CCC2CCC(CCCCC=C)N12 (stereo not drawn)	20 µM (inactive)	14.6 µM (inactive)	15.8 µM (inactive)	14 µM (inactive)	16.1 µM (inactive)	17.7 µM (inactive)	15.7 µM (inactive)	15.1 µM (inactive)	19 µM (inactive)	13.2 µM (inactive)	14.2 µM (inactive)	28.1 µM (inactive)	–	16.1 µM (inactive)	14.2 µM (inactive)	13.4 µM (inactive)	–	–	–	–
CC(C)=CC1CCc2ccccc2N1S(=O)(=O)c1ccc(C)cc1 (stereo not drawn)	1.19 µM (inactive)	3.31 µM (inactive)	1.67 µM (inactive)	2.36 µM (inactive)	1.32 µM (inactive)	2.72 µM (inactive)	0.982 µM (active)	0.726 µM (active)	3.46 µM (inactive)	3.61 µM (inactive)	–	1.17 µM (inactive)	1.68 µM (inactive)	1.22 µM (inactive)	0.982 µM (active)	1.5 µM (inactive)	–	–	–	14.8 µM (inactive)
Cc1c(C(=O)/C=C/c2ccccc2Cl)[n+]([O-])c2ccccc2[n+]1[O-]	14.3 µM (inactive)	17.2 µM (inactive)	15.6 µM (inactive)	7.08 µM (inactive)	11.9 µM (inactive)	13.3 µM (inactive)	–	10.3 µM (inactive)	17.3 µM (inactive)	19.1 µM (inactive)	16.6 µM (inactive)	16.4 µM (inactive)	–	15.9 µM (inactive)	10.6 µM (inactive)	14.7 µM (inactive)	–	–	–	20.9 µM (inactive)
c1ccc(OCCSCCCCCCCCCCSCCOc2ccccc2)cc1	74.3 µM (inactive)	48.1 µM (inactive)	14.7 µM (inactive)	> 100 µM (inactive)	> 100 µM (inactive)	61.2 µM (inactive)	> 100 µM (inactive)	54.2 µM (inactive)	> 100 µM (inactive)	65.3 µM (inactive)	–	> 100 µM (inactive)	> 100 µM (inactive)	31.6 µM (inactive)	–	30.7 µM (inactive)	–	–	–	> 100 µM (inactive)
O=C(Nc1ccccc1)O/N=C1/CCCC/C1=C\c1ccccc1	16.2 µM (inactive)	16.4 µM (inactive)	–	8.49 µM (inactive)	16.5 µM (inactive)	18.1 µM (inactive)	15.7 µM (inactive)	16.3 µM (inactive)	–	13.2 µM (inactive)	16.1 µM (inactive)	13.9 µM (inactive)	18.9 µM (inactive)	–	13.7 µM (inactive)	16.1 µM (inactive)	–	–	–	26.2 µM (inactive)
CC12CCC(C)(c3cc(O)c(O)cc31)c1cc(O)c(O)cc12	–	16.1 µM (inactive)	18.3 µM (inactive)	8.47 µM (inactive)	8.51 µM (inactive)	19.7 µM (inactive)	17.3 µM (inactive)	15.7 µM (inactive)	15.5 µM (inactive)	19.8 µM (inactive)	–	11.6 µM (inactive)	16.4 µM (inactive)	29.6 µM (inactive)	–	22 µM (inactive)	–	–	–	22.3 µM (inactive)
C=C1C(=O)OC2C1CC[C@H](C)C1(O)C(O)CC(=O)[C@@]21C (stereo partly drawn)	49.8 µM (inactive)	19.5 µM (inactive)	17.3 µM (inactive)	> 10 µM (inactive)	22.1 µM (inactive)	17.4 µM (inactive)	12.7 µM (inactive)	20.6 µM (inactive)	52 µM (inactive)	28.6 µM (inactive)	17.1 µM (inactive)	24.7 µM (inactive)	–	31 µM (inactive)	15 µM (inactive)	24.8 µM (inactive)	–	–	–	21 µM (inactive)
COc1cc2c(c(OC)c1OC)-c1ccc(SC)c(=O)cc1[C@@H](NC(=O)c1ccc(F)cc1)CC2	0.0428 µM (active)	0.0467 µM (active)	0.0615 µM (active)	0.0356 µM (active)	0.0498 µM (active)	0.053 µM (active)	0.0454 µM (active)	0.0306 µM (active)	–	< 0.01 µM (active)	–	0.07 µM (active)	0.0501 µM (active)	–	0.0416 µM (active)	0.0327 µM (active)	–	–	–	48.1 µM (inactive)
